Measurements as given in patent US20050244413A1, “Compositions and methods for treating cancer using cytotoxic CD44 antibody immunoconjugates and chemotherapeutic agents” (priority 2002, published 2005).
pKd: −log10 of the molar value. Where “and” joins values, the source holds several entries; their conditions need not be identical. Equal entries are not always repeated. Where two headings read alike, the source gives them in different places.

How the values were obtained:
MDA-MB-453 tumors [1] = experiment: BIWI 1 combination with doxorubicin in nude mice xenografted with MDA-MB-453 tumors; assay type: in vivo, mouse; settings: doxorubicin 6 mg/kg i.v. q7dx4
Method: Similar experiments as outlined under Section 2.6 were undertaken in a human breast carcinoma xenograft model. Experiments were performed using nude mice xenografted subcutaneously with the human breast carcinoma cell line MDA-MBA53. […] The efficacy of these combinations was compared to those of the respective monotherapies by i) analysing the tumor volumes over time and ii) by determining the time for tumors to reach a certain size (tumor growth delay).
The dilutions were prepared freshly for each application or stored at +4° C. during the whole treatment period. […] Doxorubicin (Doxorubicin “Ebewe”®, 2 mg/ml) was diluted in PBS. 200 μl of solutions with different concentrations were injected into the tail vein. Docetaxel (Taxotere®, Aventis, 10 mg/ml) was diluted in 0.9% NaCl. 200 μl of solutions with different concentrations were injected into the tail vein.
The xenograft model was handled slightly different as outlined under Section 2.1. Briefly, 1×10^7 MDA-MB-453 cells (ATCC No. HTB-131) were injected into the mammary fat pad of female NMRI nu/nu mice. After reaching a volume of approximately 1000 mm^3 tumors were excised, cut into 4×4 mm pieces and passaged further subcutaneously. Tumor fragments were cryoconserved in 90% RPMI 1640/10% dimethylsulfoxide (slow freezing process down to −80° C., storage in liquid nitrogen). For further passaging, frozen tumor fragments were thawed, washed 3 times in PBS and implanted subcutaneously into the right and left flanks of a 4-5 female NMRI nu/nu mice. Tumors of these mice were then used to prepare the animals for a therapy experiment. Tumors were excised with a size of approximately 10 mm in diameter, cut into 2×2 mm pieces and implanted subcutaneously into the right flank of 6-8 week old female NMRI nu/nu mice. Approximately twice as many animals as needed for the experiment were prepared. When tumors reached a size of 5-10 mm in diameter (10-14 days after implantation), animals were randomised and treatments were started. Animals were obtained from Harlan (Germany) or M&B (Denmark). Tumor sizes and body weights were recorded as described in Section 2.7.

[2] = Tolerability in MDA-MB-453 combination experiments (body weight); assay type: in vivo, mouse; settings: doxorubicin 6 mg/kg monotherapy group; combination group with BIWI 1 75 μg/kg DM1; 6 animals per group
Method: (§1) Tumor sizes and body weights were recorded 2-3 times per week. Tumor sizes were measured with a calliper (length and width) and the volume was calculated according to the following formula: volume (length)×(width)^2×([…]). The tolerability of the treatment was monitored by measuring mouse weight during the whole observation period. […] For calculation of the mean tumor volumes per group, the last values of tumor size for individual animals were carried forward in case that these animals had to be sacrificed due to large tumor burden before the whole group was terminated. In addition to the absolute tumor volume in mm^3, the relative tumor volumes (RTV) were calculated as follows: […]
(§2) In addition, for some experiments, the mean time for tumors to reach 8 times (T8T) their initial sizes were also calculated. The growth delay factor (GDF8) was then calculated accordingly. Percentages of mean relative tumor volumes of treated versus control groups (T/C) were calculated on the days indicated. For statistical evaluation of combination therapies exact Wilcoxon tests were used. Tolerability was assessed by monitoring body weight changes.

FaDuDD tumors [3] = experiment: BIWI 1 combination with docetaxel in nude mice xenografted with FaDuDD tumors; assay type: in vivo, mouse; settings: docetaxel 3 mg/kg i.v. q7dx4
Method: (§3) The antibody solution was injected into the tail vein with an injection volume of 200 μl for a 25 g mouse. In the control groups without BIWI 1 treatment animals were injected i.v. with PBS. […] The solution was injected into the tail vein with an injection volume of 200 μl for a 25 g mouse. […] The solution was injected into the tail vein with an injection volume of 200 μl for a 25 g mouse.
(§4) Tumor sizes and body weights were recorded 2-3 times per week. Tumor sizes were measured with a calliper (length and width) and the volume was calculated according to the following formula: volume (length)×(width)^2×([…]). The tolerability of the treatment was monitored by measuring mouse weight during the whole observation period. […] For calculation of the mean tumor volumes per group, the last values of tumor size for individual animals were carried forward in case that these animals had to be sacrificed due to large tumor burden before the whole group was terminated. In addition to the absolute tumor volume in mm^3, the relative tumor volumes (RTV) were calculated as follows:
(§5) RTV=(tumor volume at day x)/(tumor volume at start of treatment)×100 For the evaluation of treatment efficacy the following parameters were calculated: • T/C (%)=(mean RTV of treated group)/(mean RTV of control group)×100 • T4T (tumor quadrupling time)=time until the mean RTV reaches 400% • GDF4 (growth delay factor)=T4T treated/T4T control.
as §2
To assess the efficacy of BIWI 1 in combination with the taxane docetaxel (Taxotere), non-curative doses of both drugs were tested as single agents or in combination in nude mice xenografted with FADuDD tumors. In pilot experiments a dose of 3 mg/kg docetaxel (q7dx4) was determined to be non-curative in this model. BIWI 1 was used at the non-curative dose of 200 μg/kg DM 1 and at a somewhat higher dose (300 μg/kg DM1).
The effect was somewhat more pronounced in the two BIWI 1 monotherapy treatment groups with T/C 41-30% and GDF4: 2.8-4.4. Complete tumor regression could be observed in 1/8 cases with the higher BIWI 1 dose. […] Treatment was well tolerated in all groups, except for a slight unexplained weight loss (approx. −5%) in the docetaxel monotherapy group.

[4] = Tolerability in FaDu combination experiments (body weight); assay type: in vivo, mouse
Method: as §1, §2

MDA-MB-453 tumors [5] = tested on: MDA-MB-453 tumors
Method: Experiments were performed using nude mice xenografted subcutaneously with the human breast carcinoma cell line MDA-MBA53. […] The efficacy of these combinations was compared to those of the respective monotherapies by i) analysing the tumor volumes over time and ii) by determining the time for tumors to reach a certain size (tumor growth delay).
The dilutions were prepared freshly for each application or stored at +4° C. during the whole treatment period. […] 200 μl of solutions with different concentrations were injected into the tail vein. Docetaxel (Taxotere®, Aventis, 10 mg/ml) was diluted in 0.9% NaCl. 200 μl of solutions with different concentrations were injected into the tail vein.
Briefly, 1×10^7 MDA-MB-453 cells (ATCC No. HTB-131) were injected into the mammary fat pad of female NMRI nu/nu mice. After reaching a volume of approximately 1000 mm^3 tumors were excised, cut into 4×4 mm pieces and passaged further subcutaneously. Tumor fragments were cryoconserved in 90% RPMI 1640/10% dimethylsulfoxide (slow freezing process down to −80° C., storage in liquid nitrogen). For further passaging, frozen tumor fragments were thawed, washed 3 times in PBS and implanted subcutaneously into the right and left flanks of a 4-5 female NMRI nu/nu mice. Tumors of these mice were then used to prepare the animals for a therapy experiment. Tumors were excised with a size of approximately 10 mm in diameter, cut into 2×2 mm pieces and implanted subcutaneously into the right flank of 6-8 week old female NMRI nu/nu mice. Approximately twice as many animals as needed for the experiment were prepared. When tumors reached a size of 5-10 mm in diameter (10-14 days after implantation), animals were randomised and treatments were started. Animals were obtained from Harlan (Germany) or M&B (Denmark). Tumor sizes and body weights were recorded as described in Section 2.7.

FaDu tumors [6] = experiment: BIWI 1 combination therapy with paclitaxel in the FaDu xenograft model; assay type: in vivo, mouse; settings: or both
Method: (§6) In vivo anti-tumor efficacy of BIWI 1 was tested in three nude mouse xenograft models applying antigen-positive human tumors: A431 (ATCC # CRL 1555; epidermoid carcinoma of the vulva), FaDu (ATCC # HTB 43; squamous cell carcinoma of the pharynx), and MDA-MB 453 (ATCC # HTB-131; breast carcinoma). The cells were received from ATCC and cultured in RPMI1640 medium containing 10% fetal calf serum and supplements. 1×10^6 tumors cells were transplanted subcutaneously into the right flank of 6 week old female NMRI-nu/nu mice. Tumor growth was monitored by measuring tumor size. A tumor response was rated as complete response when the tumor completely disappeared at any time after start of treatment. The response was rated as partial response when the tumor volume decreased after treatment but thereafter started regrowing. The tolerability of the treatment was monitored by measuring mouse weight during the observation period.
Mice were randomised into the following treatment groups (treatment/initial mean tumor volume/tumor volume range/number of mice): • Group 1: Control (PBS)/197 mm^3/65-402 mm^3/8 mice • Group 2: Paclitaxel/182 mm^3 /65%-302 mm^3/8 mice • Group 3: BIWI 1/208 mm^3 /65-382 mm^3/8 mice • Group 4: BIWI 1+paclitaxel/159 mm^3 /79-335 mm^3 /7 mice
Treatment consisted either of five i.v. injections of BIWI 1 (7 mg/kg corresponding to 100 μg/kg DM1) at day 1, 3, 5, 8, 10, or of six i.p. injections of paclitaxel (10 mg/kg) at day 2, 4, 6, 9, 11, 13, respectively, or a combination thereof. Control animals were treated with PBS.
One tumor completely dissappeared during treatment and the animal remained tumor free until the end of the observation period.

[7] = tested on: breast carcinoma xenografts; experiment: BIWI 1 (five daily doses) combination with paclitaxel in human breast carcinoma xenograft model; assay type: in vivo, mouse
Method: BIWI was given i.v. into the tail vein at doses of 50 μg DM1/kg/day or 100 μg DM1/kg/day for five consecutive days. Paclitaxel (Taxol®) was given i.v. at 20 or 10 mg/kg, doxorubicin (Adriamycin®) at 6 or 4 mg/kg only on the first day of the treatment period, in each case 4 hours after BIWI 1 treatment. In mice bearing breast carcinoma xenografts with a volume of approximately 100 mm3.

FaDuDD tumors [8] = experiment: BIWI 1 combination with cisplatin in nude mice xenografted with FaDuDD tumors; assay type: in vivo, mouse; settings: cisplatin 4 mg/kg i.v. q7dx4
Method: as §3, §4, §5, §2
A different set of experiments was done with cisplatin. In a pilot experiment, a dose of 4 mg/kg cisplatin administered i.v. four times in weekly intervals was determined to be non-curative in this model, and also represents the maximum tolerated dose in the mouse strain used. This dose of cisplatin was combined with BIWI 1 at the non-curative doses of 200 μg/kg DM1 and 300 Ag/kg DM1 already used in the previous experiment. […] In the latter combination group 2/8 complete tumor regressions could be observed. […] Treatment was well tolerated in all groups.

[9] = tested on: antigen-positive FaDu cells; experiment: In vitro binding to FaDu cells (FACS); settings: 1 hour on ice, FITC-labeled anti-human IgG, read-out: apparent KD
Method: The binding of BIWA 4 antibody and BIWI 1 conjugate to antigen-positive FaDu cells was determined. Cells ([…]) were incubated in 96-well plates with varying concentrations of antibody or conjugate on ice for 1 hour. The test article was washed from the plate and FITC-labeled anti-human IgG was added and the incubation on ice was continued in the dark for 1 hour. After washing, the cells were fixed with 1% paraformaldehyde and analyzed on a fluorescence activated cell sorter (FACS).

A431 tumors = experiment: BIWI 1 monotherapy in A431 xenografted nude mice; assay type: in vivo, mouse; settings: 21 mg/kg/d control antibody i.v., five consecutive days
Method: as §6
Mice were randomised into the following treatment groups (treatment/initial mean tumor volume/tumor volume range/number of mice): • Group 1: Control (PBS)/185±217 mm^3/19-424 mm^3/5 mice. • Group 2: BIWA 4 (21 mg/kg/d)/133±115 mm^3/42-302 mm^3/5 mice. • Group 3: BIWI 1 (2.1 mg/kg/d)/107±63 mm^3/42-205 mm^3′/5 mice. • Group 4: BIWI 1 (7 mg/kg/d)/132±73 mm^3/42-205 mm^3/5 mice. • Group 5: BIWI 1 (21 mg/kg/d)/107±[…]/42-205 mm^3/5 mice.
(§7) Groups of 5 mice were treated with 2.1 mg/kg/d BIWI 1, 7 mg/kg/d BIWI 1, 21 mg/kg/d BIWI 1, and 21 mg/kg/d control antibody, respectively. Treatment consisted of i.v. injections of BIWI 1 given on five consecutive days, starting at day 1.

FaDu tumors [10] = experiment: BIWI 1 monotherapy in FaDu xenografted nude mice; assay type: in vivo, mouse; settings: 21 mg/kg/d control antibody i.v., five consecutive days
Method: as §6
Mice were randomised into the following treatment groups (treatment/initial mean tumor volume/tumor volume range/number of mice): • Group 1: Control (PBS)/142±82 mm^3/34-268 mm^3 /8 mice. • Group 2: BIWA 4 (21 mg/kg/d)/134±86 mm^3/42-268 mm^3/6 mice. • Group 3: BIWI 1 (2.1 mg/kg/d) 149±96 mm^3/50-268 mm^3/6 mice. • Group 4: BIWI 1 (7 mg/kg/d)/132±97 mm^3 42-268 mm^3/6 mice. • Group 5: BIWI 1 (21 mg/kg/d)/129±74 mm^3/50-231 mm^3/6 mice.
as §7, with “6” for “5”, “1. […] The remaining 2 tumors grew similar to untreated control tumors.” for “1.”

cells = settings: free DM1, literature background; cited from earlier work
[11] = BIWI 1 7 mg/kg i.v. x5, paclitaxel 10 mg/kg i.p. x6

In the case of `COc1cccc2c1C(=O)c1c(O)c3c(c(O)c1C2=O)C[C@@](O)(C(=O)CO)C[C@@H]3O[C@H]1C[C@H](N)[C@H](O)[C@H](C)O1` [Doxorubicin, reference compound], the GDF4 (MDA-MB-453 tumors [1]) was 1.0, the “T/C (d13)” value (MDA-MB-453 tumors [1]) was 66% and the “animals with transient weight loss of more than 12%” value [2] was “two”.
In the case of `CC(=O)O[C@@]12CO[C@@H]1C[C@H](O)[C@@]1(C)C(=O)[C@H](O)C3=C(C)[C@@H](OC(=O)[C@H](O)[C@@H](NC(=O)OC(C)(C)C)c4ccccc4)C[C@@](O)([C@@H](OC(=O)c4ccccc4)[C@H]21)C3(C)C` [Docetaxel], the GDF4 (FaDuDD tumors [3]) was 1.9, the “T4T” value (FaDuDD tumors [3]) was 13.5 days and the “T/C (d 16)” value (FaDuDD tumors [3]) was 56%. For the same compound, the weight loss ([4]; docetaxel monotherapy group 3 mg/kg q7dx4, FaDuDD xenografted mice) was “approx. −5%”, the GDF4 (MDA-MB-453 tumors [5]; docetaxel 3 mg/kg i.v. q7dx4) was 0.8 and the “T4T” value (MDA-MB-453 tumors [5]; docetaxel 3 mg/kg i.v. q7dx4) was 9.0 days. For the same compound, the “T/C (d 16)” value (MDA-MB-453 tumors [5]; docetaxel 3 mg/kg i.v. q7dx4) was 102%, the GDF4 (MDA-MB-453 tumors [5]; docetaxel 6 mg/kg i.v. q7dx4) was 1.3 and the “T4T” value (MDA-MB-453 tumors [5]; docetaxel 6 mg/kg i.v. q7dx4) was 14 days and 13.9 days. For the same compound, the “T/C (d 16)” value (MDA-MB-453 tumors [5]; docetaxel 6 mg/kg i.v. q7dx4) was 71%.
For `CC(=O)O[C@H]1C(=O)[C@@]2(C)[C@H]([C@H](OC(=O)c3ccccc3)[C@]3(O)C[C@H](OC(=O)[C@H](O)[C@@H](NC(=O)c4ccccc4)c4ccccc4)C(C)=C1C3(C)C)[C@]1(OC(C)=O)CO[C@@H]1C[C@@H]2O` [Paclitaxel, reference compound], the “Initial Tumor Doubling Time” value (FaDu tumors [6]; BIWI 1 7 mg/kg i.v. day 1,3,5,8,10, paclitaxel 10 mg/kg i.p. day 2,4,6,9,11,13) was 7 days, the “Complete Regression” value (FaDu tumors [6]; [11]) was 0/8 and the “Growth Delay Factor” value (FaDu tumors [6]; [11]) was 0.75. For the same compound, the “T/C (median relative tumor volumes of treated versus control groups)” value ([7]; paclitaxel monotherapy 10 mg/kg i.v. on first day) was 50% and the “T/C (median relative tumor volumes of treated versus control groups)” value ([7]; paclitaxel monotherapy 20 mg/kg i.v. on first day) was 13%.
With `N.N.[Cl][Pt][Cl]` [Cisplatin, reference compound] the GDF4 (FaDuDD tumors [8]) was 1.1, the “T4T” value (FaDuDD tumors [8]) was 11.3 days and the “T/C (d 19)” value (FaDuDD tumors [8]) was 100%. The “maximum tolerated dose in the mouse strain used” value ([4]; cisplatin i.v. four times in weekly intervals, pilot experiment) was 4 mg/kg.
With BIWA 4 the pKd [9] was 9.00, the anti-tumor effect (A431 tumors) was “no anti-tumor effect” and the “tumor volume doubling time” value (A431 tumors) was “approximately 5 days”. The anti-tumor effect (FaDu tumors [10]) was “no anti-tumor effect” and the “tumor volume doubling time” value (FaDu tumors [10]) was “approximately 5 days”.
In the case of `COc1cc2cc(c1Cl)N(C)C(=O)C[C@H](OC(=O)[C@H](C)N(C)C(=O)CCS)[C@]1(C)O[C@H]1[C@H](C)[C@@H]1C[C@@](O)(NC(=O)O1)[C@H](OC)/C=C/C=C(\C)C2` [DM1, N^2′-deacetyl-N^2′-(3-mercapto-1-oxopropyl)-Maytansine], the “concentration toxic to cells in vitro” value (cells) is given as “about 10^−10 M”.
